Laboratory results as given in patent US20240398783A1, “Compounds and Pharmaceutical Compositions Comprising Inhibitors of Amyloid Peptide Interactions with Glycosaminoglycans, Methods of Treatment and Use Thereof” (Gismo Therapeutics, Inc., priority 2021, published 2024).
pIC50: −log10 of the molar value. Where a name gives a salt, the structure may show the parent alone. Read-outs that look alike come from different tables or passages of the source.

Columns and labels:
Parameters in all cases: species or system porcine
[1] = target: T1, Amyloid-beta(1-42) oligomer binding to heparin (HS-GAG) (Homo sapiens, UniProt P05067); test: Inhibition of Amyloid-beta(1-42) oligomer binding to immobilized heparin-BSA (ELISA); conditions: Abeta(1-42) oligomers; for pIC50: co-incubation on heparin-BSA plates, read-out: Abeta42/Heparin Activity (IC-50); for inhibition at 30 µM: 30 μM compound, heparin-BSA, read-out: Abeta42/Heparin Activity (% inhibition class)
T1 construct: Beta-amyloid (1-42) was purchased from rPeptide (Cat. No. A1163); purchased rPeptide A1163
Method: (§1) Porcine intestinal mucosa heparin conjugated to Bovine Serum Albumin (Heparin-BSA) was prepared as described (Najjam, S. et al. 1997, Cytokine 12, 1013-1022). Heparin is a sulfated HS-GAG and is commonly used as a HS-GAG in biochemical and binding assays (Lindahl, U. and Kjellen, L. (2013) ibid). Heparin-BSA at 0.01 mg/ml in Phosphate Buffered Saline (PBS; pH 7.4) was added to a 96 well polystyrene ELISA plate (NUNC Cat. No. 449824; 100 μl per well) and incubated Over Night (ON) at 4 degrees Celsius. For negative controls, ELISA plates were coated with BSA instead of Heparin-BSA, using the same procedure. Following the incubation, the plate was washed consecutively, by immersion, with de-ionized water and PBS (pH 7.4). The ELISA plate was then blocked with nonfat milk (2%, 200 μl per well) for 2 hours at Room Temperature (RT) with gentle shaking. Following blocking, the plate was washed with de-ionized water then PBS (pH 7.4). GBAPs were dissolved and diluted in PBS (pH 6.5, supplemented with 0.1% BSA) at desired concentrations, added to the ELISA plates containing immobilized Heparin-BSA (100 μl per well) and incubated for 2 hours at RT with gentle shaking. Following incubation, the plate was washed with de-ionized water and three times with PBS (pH 6.5) plus Tween. Bound GBAP was detected by a monoclonal antibody specific for that GBAP, followed by incubation with secondary antibody conjugated to horseradish peroxidase (HRP). Antibody was diluted in PBS (pH 6.5 supplemented with 1% BSA). Following each incubation with antibody, the plate was washed with de-ionized water and three times with PBS (pH 6.5) wash buffer containing 0.1% Tween. The peroxidase substrate chromogen, TMB (Dako Cat. No. S1599) was added (100 μl per well) to the ELISA plate and incubated at room temperature. After 5 minutes ELISA Stop Solution (hydrochloric acid 1N, sulfuric acid 3N) was added (100 μl per well) to stop the peroxidase catalyzed colorimetric reaction. The Optical Density of the samples was measured at 450 nm using an ELISA plate reader (BioTek Synergy H1). Following color development, the % inhibition compared to control (BSA-coated plates) was determined. IC-50s were calculated using GraphPad Prism software.
(§2) The assay was performed as described in Example 43, with the following modifications. Following to coating the plates with Heparin-BSA, plates were washed as described. The compounds were dissolved in DMSO at 10 mM final concentration and further diluted prior to assay. DMSO concentration in the screening well was up to 2%. Individual compounds were co-incubated with Beta-amyloid peptides on plates containing immobilized heparin. Beta-amyloid (1-42) was purchased from rPeptide (Cat. No. A1163) and used to prepare oligomers according to Stine et al., 2003 (J Biol Chem. 278(13):11612-22) as follows. 1,1,1,3,3,3-Hexafluoro-2-propanol- (HFIP; Sigma Cat. No. 105228)-treated Beta amyloid (1-42) was dissolved in dry DMSO (Sigma Cat. No. D2650) to 5 mM concentration. Dissolved Beta amyloid (1-42) was then diluted to 100 μM in ice-cold cell culture medium (phenol red-free Ham's F-12; Caisson Labs, Cat. No. HFL05), followed immediately by vortexing for 30 seconds, and incubating at 4 degrees Celsius for 24 h. Resulting Beta amyloid (1-42) oligomers were centrifuged at 12,000 rpm for 10 min at 4 degree Celsius to remove aggregates. Oligomers were then quickly frozen and kept in aliquots at −80 degrees Celsius. Beta-amyloid (1-40) from rPeptide (Cat No. A1153) was dissolved in DMSO, quickly frozen and kept in aliquots at −80 degrees Celsius. Beta-amyloid (1-42) oligomers or Beta-amyloid (1-40) diluted in PBS (pH 6.5, supplemented with BSA, 0.1%) were added to the ELISA plate (100 μl per well) and incubated for 2 hours at RT with gentle shaking. Following the incubation, the plate was washed with de-ionized water and three times with PBS (pH 6.5) plus Tween. […]

[2] = target: Amyloid-beta(1-40) binding to heparin (HS-GAG) (Homo sapiens, UniProt P05067); test: Inhibition of Amyloid-beta(1-40) binding to immobilized heparin-BSA (ELISA); conditions: for pIC50: co-incubation on heparin-BSA plates; for inhibition at 30 µM: read-out: Abeta40/Heparin Activity (% inhibition class)
Method: as §1, §2

[3] = target: TDP-43 binding to heparin (HS-GAG) (Homo sapiens, UniProt Q13148); test: Inhibition of TDP-43 binding to immobilized heparin-BSA (ELISA); conditions: for pIC50: TDP-43, heparin-BSA; for inhibition at 30 µM: read-out: TDP43/Heparin Activity (% inhibition class)
Method: as §1
The assay was performed as described in Example 43, with the following modifications.
Following to coating the plates with Heparin-BSA, plates were washed as described. The compounds were dissolved in DMSO at 10 mM final concentration and further diluted prior to assay. DMSO concentration in the screening well was up to 2%. Individual compounds were co-incubated with TDP-43 on plates containing immobilized heparin. TDP43 from R&D System (Cat. No. AP-190) was quickly frozen and kept in aliquots at −80 degrees Celsius. TDP-43 dissolved in PBS (pH 6.5, supplemented with BSA, 0.1%) was added to the ELISA plate (100 μl per well) and incubated for 2 hours at RT with gentle shaking. Following the incubation, the plate was washed with de-ionized water and three times with PBS (pH 6.5) plus Tween. Bound TDP-43 was detected by Anti-TDP43 Monoclonal Antibody (R&D System Cat. No. MAB7778), followed by secondary anti-IgG antibody conjugated to HRP (R&D System, Cat. No. HAF007). Following to color development with TMB, as described in Example 43, the Optical Density of the samples was measured at 450 nm using an ELISA plate reader. Following color development, the % inhibition compared to control (no compound, DMSO control) for every compound was determined.
As described in Example 43, Heparin in the form of Heparin-BSA conjugate is used as a source of HS-GAG. For each compound IC-50 value in TDP-43—heparin-BSA binding assay is shown in μM (micromolar). In some cases IC-50 was not measured and % inhibition at 30 μM compound concentration is shown instead. […] All assays were done on 96-well plates in duplicates and experiments were repeated at least twice. […]

[4] = Abeta40/Heparin Activity (IC-50), Abeta(1-40)

TDP-43 binding to heparin (HS-GAG), sequence (Q13148 whole entry): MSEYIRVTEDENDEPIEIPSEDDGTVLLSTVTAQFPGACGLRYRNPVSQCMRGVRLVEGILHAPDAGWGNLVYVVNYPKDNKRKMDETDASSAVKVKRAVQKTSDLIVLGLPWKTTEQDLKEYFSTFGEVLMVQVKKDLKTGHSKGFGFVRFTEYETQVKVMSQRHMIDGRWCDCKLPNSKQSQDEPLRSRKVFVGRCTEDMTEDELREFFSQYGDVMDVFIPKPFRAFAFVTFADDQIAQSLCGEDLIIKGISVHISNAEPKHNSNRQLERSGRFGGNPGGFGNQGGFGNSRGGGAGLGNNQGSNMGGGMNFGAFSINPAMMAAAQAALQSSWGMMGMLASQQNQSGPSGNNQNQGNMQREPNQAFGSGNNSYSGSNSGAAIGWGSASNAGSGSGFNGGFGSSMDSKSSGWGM
Amyloid-beta(1-40) binding to heparin (HS-GAG), sequence (P05067 672-711): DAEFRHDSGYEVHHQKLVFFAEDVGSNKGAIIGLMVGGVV
T1 sequence (P05067 672-713): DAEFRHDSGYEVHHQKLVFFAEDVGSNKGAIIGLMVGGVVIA

In the case of Clc1ccc2c(Nc3ccc(-n4cncn4)nc3)ncnc2c1 [Compound 34, N-(6-(1H-1,2,4-triazol-1-yl)pyridin-3-yl)-7-chloroquinazolin-4-amine phosphoric acid salt], the pIC50 [1] was 5.00, the pIC50 [2, 4] was 4.46 and the pIC50 ([3]; TDP43/Heparin Activity (IC-50)) was 5.28.
With Fc1cc(/C=N/Nc2ccnc3cc(Cl)ccc23)ccc1-n1ccnc1 [Compound 35, (E)-7-chloro-4-(2-(3-fluoro-4-(1H-imidazol-1-yl)benzylidene)hydrazineyl)quinoline hydrochloride] the pIC50 [1] was 4.81, the inhibition at 30 µM [2] was less than 30% and the pIC50 ([3]; TDP43/Heparin Activity (IC-50)) was 4.81.
CC(=NNc1ccnc2cc(Cl)ccc12)c1ccc(-n2ccnc2)cc1 [Compound 36, 4-(2-(1-(4-(1H-imidazol-1-yl)phenyl)ethylidene)hydrazineyl)-7-chloroquinoline phosphate] showed a pIC50 [1] of 4.85, a pIC50 [2, 4] of 4.86 and a pIC50 ([3]; TDP43/Heparin Activity (IC-50)) of 4.32.
For Cc1cn(-c2ccc(Nc3cncc4cc(Cl)ccc34)cn2)c(C)n1 [Compound 37, 7-chloro-N-(6-(2,4-dimethyl-1H-imidazol-1-yl)pyridin-3-yl)isoquinolin-4-amine phosphoric acid salt], the inhibition at 30 µM [1] was less than 30%, the pIC50 [2, 4] was 4.34 and the inhibition at 30 µM [3] was less than 30%.
With Clc1ccc2c(N/N=C/c3ccc(-n4ccnc4)cc3)ccnc2c1 [Compound 38, 4-(2-(4-(1H-imidazol-1-yl)benzylidene)hydrazineyl)-7-chloroquinoline dihydrochloride] the pIC50 [1] was 5.56, the pIC50 [2, 4] was 5.89 and the pIC50 ([3]; TDP43/Heparin Activity (IC-50)) was 5.24.
CCN1CCN(c2ccc(Nc3ccnc4cc5ccccc5cc34)cc2)CC1 [Compound 39, N-(4-(4-ethylpiperazin-1-yl)phenyl)benzo[g]quinolin-4-amine] showed an inhibition at 30 µM [1] of less than 30%, a pIC50 [2, 4] of 4.68 and an inhibition at 30 µM [3] greater than 30%.
Work on Cc1ncn(-c2ncc(Nc3ncnc4cc(Cl)ccc34)cc2O)c1C [Compound 40, 5-((7-chloroquinazolin-4-yl)amino)-2-(4,5-dimethyl-1H-imidazol-1-yl)pyridin-3-ol phosphoric acid salt] yielded a pIC50 [1] of 5.06, an inhibition at 30 µM [2] of less than 30% and a pIC50 ([3]; TDP43/Heparin Activity (IC-50)) of 5.13.
Clc1ccc2c(Nc3ccc(-n4ccnc4)nc3)ncnc2c1 [Compound 41, N-(6-(1H-imidazol-1-yl)pyridin-3-yl)-7-chloroquinazolin-4-amine] gave a pIC50 [1] of 4.14, a pIC50 ([2]; Abeta(1-40), read-out: Abeta40/Heparin Activity (IC-50)) of 4.49 and a pIC50 ([3]; read-out: TDP43/Heparin Activity (IC-50)) of 5.37.
With CCN(CC)Cc1cccc(Nc2ccnc3cc(Cl)ccc23)c1 [Compound 42, 7-chloro-N-(3-((diethylamino)methyl)phenyl)quinolin-4-amine] the inhibition at 30 µM [1] was less than 30%, the pIC50 [2, 4] was 4.91 and the inhibition at 30 µM [3] was less than 30%.
Compound C[n+]1ccn(-c2ccc(Nc3ncnc4cc(Cl)ccc34)cn2)c1 [Compound 43, 1-(5-((7-chloroquinazolin-4-yl)amino)pyridin-2-yl)-3-methyl-1H-imidazol-3-ium iodide phosphoric acid salt] has an inhibition at 30 µM [1] of less than 30%, an inhibition at 30 µM [2] of less than 30% and an inhibition at 30 µM [3] of less than 30%.
Work on Clc1ccc2c(Nc3ccc(-n4cncn4)nc3)ccnc2c1 [Compound 44, N-(6-(1H-1,2,4-triazol-1-yl)pyridin-3-yl)-7-chloroquinolin-4-amine] yielded a pIC50 [1] of 4.45, a pIC50 [2, 4] of 4.72 and a pIC50 ([3]; TDP43/Heparin Activity (IC-50)) of 5.18.
Compound CN(C)Cc1cc(Nc2ccnc3cc(Cl)ccc23)ccn1 [Compound 45, 7-chloro-N-(2-((dimethylamino)methyl)pyridin-4-yl)quinolin-4-amine] has an inhibition at 30 µM [1] of less than 30%, an inhibition at 30 µM ([2]; 30 μM compound, Abeta(1-40), heparin-BSA) of less than 30% and an inhibition at 30 µM [3] of less than 30%.
